In ChEMBL document CHEMBL3864158, “Syntheses, cytotoxic activity evaluation and HQSAR study of 1,2,3-triazole-linked isosteviol derivatives as potential anticancer agents” (Bioorg Med Chem Lett, 2016) one finds IC50 data, which are given here for 21 compounds.

Test [1] is described as follows: Cytotoxicity against human HCT116 cells assessed as decrease in cell proliferation after 72 hrs by MTT assay. In kind it is functional, cell-based. The note with it: HCT-116, 72 h. (In general: Formazan colour is commonly taken as a measure of viable cells.)
Test [2] in a line: Cytotoxicity against human JeKo1 cells assessed as decrease in cell proliferation after 72 hrs by MTT assay. In kind it is functional, cell-based. To be noted: JeKo-1, 72 h.

Structures are written as SMILES.

As to `CCOC(=O)[C@]1(C)CCC[C@@]2(C)[C@@H]3CC[C@@]4(C)C[C@]3(CC[C@@H]21)[C@H](Cn1cc(-c2ccccc2)nn1)[C@H]4O`, the IC50 in test [1] was determined as 8.57 µM; in test [2], 18.8 µM.

As to `CCOC(=O)[C@]1(C)CCC[C@@]2(C)[C@@H]3CC[C@@]4(C)C[C@]3(CC[C@@H]21)[C@H](Cn1cc(COc2cccc(C=O)c2)nn1)[C@H]4O`, the half-maximal inhibitory concentration (IC50) in test [1] was determined as 4.64 µM; in test [2], 15.6 µM.

As to `CCOC(=O)[C@]1(C)CCC[C@@]2(C)[C@@H]3CC[C@@]4(C)C[C@]3(CC[C@@H]21)C[C@@H]4n1cc(COc2ccc(C=O)cc2OC)nn1`, the values for the half-maximal inhibitory concentration (IC50) in test [1] and in test [2] were 7.18 µM and 10.9 µM, respectively.

As to `CCOC(=O)[C@]1(C)CCC[C@@]2(C)[C@@H]3CC[C@@]4(C)C[C@]3(CC[C@@H]21)C[C@@H]4n1cc(COc2ccc(C(=O)O)cc2)nn1`, the figures for the half-inhibitory concentration (IC50) in test [1] and in test [2] were 11.8 µM and 54.4 µM, respectively.

Turning to `CCOC(=O)[C@]1(C)CCC[C@@]2(C)[C@@H]3CC[C@@]4(C)C[C@]3(CC[C@@H]21)[C@H](Cn1cc(COc2ccc(C(C)=O)cc2)nn1)[C@H]4O`, the 50% inhibitory concentration (IC50) in test [1] stood at 8.15 µM; in test [2], 19.6 µM.

`CCOC(=O)[C@]1(C)CCC[C@@]2(C)[C@@H]3CC[C@@]4(C)C[C@]3(CC[C@@H]21)C[C@@H]4n1cc(-c2ccccc2)nn1`: the half-inhibitory concentration (IC50) in test [1] turned out to be 48.4 µM; in test [2] it was 95.9 µM.

Turning to `CCOC(=O)[C@]1(C)CCC[C@@]2(C)[C@@H]3CC[C@@]4(C)C[C@]3(CC[C@@H]21)[C@H](Cn1cc(COc2ccccc2C=O)nn1)[C@H]4O`, the IC50 turned out to be 2.99 µM in test [1] and 12.7 µM in test [2].

On to `CCOC(=O)[C@]1(C)CCC[C@@]2(C)[C@@H]3CC[C@@]4(C)C[C@]3(CC[C@@H]21)[C@H](Cn1cc(COc2ccc(C=O)cc2)nn1)[C@H]4O`, for which the half-maximal inhibitory concentration (IC50) in test [1] was 6.62 µM; in test [2] it was 16.4 µM.

Take `CCOC(=O)[C@]1(C)CCC[C@@]2(C)[C@@H]3CC[C@@]4(C)C[C@]3(CC[C@@H]21)C[C@@H]4n1cc(COc2cccc(C=O)c2)nn1`: the figures for the half-maximal inhibitory concentration (IC50) in test [1] and in test [2] were 6.5 µM and 9.5 µM, respectively.

`CCOC(=O)[C@]1(C)CCC[C@@]2(C)[C@@H]3CC[C@@]4(C)C[C@]3(CC[C@@H]21)C[C@@H]4n1cc(COc2ccc(C=O)cc2)nn1`: the values for the half-inhibitory concentration (IC50) in test [1] and in test [2] were 8.2 µM and 11.7 µM, respectively.

Turning to `CCOC(=O)[C@]1(C)CCC[C@@]2(C)[C@@H]3CC[C@@]4(C)C[C@]3(CC[C@@H]21)C[C@@H]4n1cc(COc2ccc(C(C)=O)cc2)nn1`, the values for the 50% inhibitory concentration (IC50) in test [1] and in test [2] were 9.62 µM and 13.9 µM, respectively.

As to `CCOC(=O)[C@]1(C)CCC[C@@]2(C)[C@@H]3CC[C@@]4(C)C[C@]3(CC[C@@H]21)C[C@H]4OS(=O)(=O)c1ccc(C)cc1`, the half-inhibitory concentration (IC50) was found to be 51.4 µM in test [1] and 9.75 µM in test [2].

In the case of `CCOC(=O)[C@]1(C)CCC[C@@]2(C)[C@@H]3CC[C@@]4(C)C[C@]3(CC[C@@H]21)[C@H](CN=[N+]=[N-])[C@H]4O`, the IC50 in test [1] amounted to 14.8 µM; in test [2], 31.2 µM.

Regarding `CC(=O)O[C@@H]1O[C@H](n2cc(COC(=O)[C@]3(C)CCC[C@@]4(C)[C@H]5CC[C@@]6(C)C[C@]5(CC[C@@H]43)CC6=O)nn2)[C@@H](OC(C)=O)[C@@H](OC(C)=O)[C@H]1OC(C)=O`, the IC50 was determined as 19.3 µM in test [1] and 26.3 µM in test [2].

As for `CCOC(=O)[C@]1(C)CCC[C@@]2(C)[C@@H]3CC[C@@]4(C)C[C@]3(CC[C@@H]21)C[C@@H]4n1cc(COc2ccccc2C=O)nn1`, the figures for the IC50 in test [1] and in test [2] were 3.8 µM and 12.2 µM, respectively.

As for `C#CCOC(=O)[C@]1(C)CCC[C@@]2(C)[C@@H]3CC[C@@]4(C)C[C@]3(CC[C@@H]21)CC4=O`, the IC50 in test [1] came out at 27.1 µM; in test [2] it was 24.7 µM.

For the compound `CCOC(=O)[C@]1(C)CCC[C@@]2(C)[C@@H]3CC[C@@]4(C)C[C@]3(CC[C@@H]21)C[C@@H]4N=[N+]=[N-]`, the values for the IC50 in test [1] and in test [2] were 46.1 µM and 55.2 µM, respectively.

`CCOC(=O)[C@]1(C)CCC[C@@]2(C)[C@@H]3CC[C@@]4(C)C[C@]3(CC[C@@H]21)[C@H](Cn1cc(CO)nn1)[C@H]4O`: the half-maximal inhibitory concentration (IC50) in test [1] amounted to 19.6 µM; in test [2], 32.3 µM.

`CCOC(=O)[C@]1(C)CCC[C@@]2(C)[C@@H]3CC[C@@]4(C)C[C@]3(CC[C@@H]21)[C@H](Cn1cc(COc2ccc(C=O)cc2OC)nn1)[C@H]4O`: the IC50 in test [1] is 4.04 µM; in test [2], 7.09 µM.

As to `CCOC(=O)[C@]1(C)CCC[C@@]2(C)[C@@H]3CC[C@@]4(C)C[C@]3(CC[C@@H]21)C[C@H]4n1cc(COC(=O)[C@]2(C)CCC[C@@]3(C)[C@@H]4CC[C@@]5(C)C[C@]4(CC[C@@H]32)CC5=O)nn1`, the half-inhibitory concentration (IC50) amounted to 126 µM in test [1] and 15.3 µM in test [2].

With `C[C@@]12CC[C@@H]3[C@@](CC[C@H]4[C@@]3(C)CCC[C@@]4(C)C(=O)O)(CC1=O)C2` [ISOSTEVIOL], the half-inhibitory concentration (IC50) in test [1] and in test [2] was above 150 µM each time.

As usually defined, the IC50 is the point on the concentration scale where inhibition reaches its midpoint.
